# Test system: CT-26 cells
# Assay: XTT viability of CT-26 cells after direct gas exposure in 96-well plate
# Assay type: cell-based
# Settings: Mus musculus, CT26; 50,000 ppm gNO for 10, 60, or 180 seconds; XTT after 24 hours
# Source text: Tumor celllines: The mouse colon carcinoma cell line, CT26WT, was cloned from CT26, an N-nitroso-N-methylurethane-induced, undifferentiated colon carcinoma cell line. The mouse mammary tumor cell line, 4T1, is a 6-thioguanine resistant cell line. When injected into BALB/c mice, 4T1 spontaneously produces highly metastatic tumors that can metastasize to the lung, liver, lymph nodes and brain while the primary tumor is growing in situ. […] Panc 02.03 is a pancreatic adenocarcinoma epithelial cell line derived in 1995 from a primary tumor removed from the head-of-the-pancreas of […] with pancreatic adenocarcinoma. CT26, 4T1 and Panc 02.03 cell lines were grown in RPMI based media (ATCC 30-2001) supplemented with fetal bovine serum and pen-strep (both from Biological Industries). The LLC1/LU2 cell line was grown in DMEM based media (ATCC 30-2002) supplemented with fetal bovine serum and pen-strep (Biological industries). The B16.F10 cell lines was grown in DMEM based media (ATCC 30-2002) supplemented with fetal bovine serum and pen-strep (Biologicalindustries).
# In vitro systems: One system involves a direct exposure of cancer cells to gNO in 96-well plate. Gaseous NO at 150 ppm-50,000 ppm was delivered at 0.3 LPM for 10 seconds—3 minutes. In another system, cancer cells were exposed to gNO in a box made of acrylic glass. […]
compound,measurement,value
"[N]=O [gNO, nitric oxide]",viability at 50000 ppm,~1%
